The source of these data is paper PMC8776063, “Aurora Kinase A Is Involved in Controlling the Localization of Aquaporin-2 in Renal Principal Cells” (International Journal of Molecular Sciences, 2022).

Like-named read-outs stand apart in the source and are kept apart here.

In data set [1] the test system is CFL1 phosphorylation in primary IMCD cells. The data set is described as follows: CFL1 phosphorylation, Western blotting. The format is cell-based, rat. As to conditions: compound 20 µM, 1 h.
In data set [2] the test system is complex of AURKA and TPX2. Set-up: method as in PMID 26732741. As to conditions: cited from earlier work.
For data set [3], the target named is T1, STK38L (Homo sapiens, UniProt Q9Y2H1).
T1 construct: purchased in-house thermal shift (DSF) kinase panel (SGC Frankfurt); Promega NanoBRET for AURKA/B/C
Put plainly: Thermal shift assay. The class given is binding. The note with it: read-out: ΔTm STK38L.

For data set [4], the target named is T2, GAK (Homo sapiens, UniProt O14976).
T2 construct: purchased in-house thermal shift (DSF) kinase panel (SGC Frankfurt); Promega NanoBRET for AURKA/B/C
T2 sequence (O14976 14-351): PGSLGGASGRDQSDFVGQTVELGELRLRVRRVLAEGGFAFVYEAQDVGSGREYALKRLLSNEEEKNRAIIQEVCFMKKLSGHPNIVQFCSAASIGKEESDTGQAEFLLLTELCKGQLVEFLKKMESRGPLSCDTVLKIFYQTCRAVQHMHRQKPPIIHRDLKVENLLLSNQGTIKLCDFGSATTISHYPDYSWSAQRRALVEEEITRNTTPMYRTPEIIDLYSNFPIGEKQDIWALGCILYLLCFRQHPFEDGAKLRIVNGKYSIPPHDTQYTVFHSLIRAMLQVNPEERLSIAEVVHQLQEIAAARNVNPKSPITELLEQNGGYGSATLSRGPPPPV
Put plainly: Thermal shift assay. The format is binding. The note with it: read-out: ΔTm GAK.

Data set [5] deals with T3, CSNK1D (Homo sapiens, UniProt P48730).
T3 construct: purchased in-house thermal shift (DSF) kinase panel (SGC Frankfurt); Promega NanoBRET for AURKA/B/C
T3 sequence (P48730 1-294): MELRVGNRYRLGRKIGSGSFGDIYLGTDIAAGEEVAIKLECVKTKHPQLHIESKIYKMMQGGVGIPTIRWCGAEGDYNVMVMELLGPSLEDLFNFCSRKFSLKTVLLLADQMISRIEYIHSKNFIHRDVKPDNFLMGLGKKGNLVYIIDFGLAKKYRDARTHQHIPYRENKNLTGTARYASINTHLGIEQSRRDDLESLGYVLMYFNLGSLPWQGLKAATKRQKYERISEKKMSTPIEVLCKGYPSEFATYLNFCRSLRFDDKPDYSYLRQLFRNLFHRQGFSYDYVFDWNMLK
The data set is described as follows: Thermal shift assay. The note with it: read-out: ΔTm CSNK1D. The format is binding.

Data set [6] has as its target T4, BMX (Homo sapiens, UniProt P51813).
T4 construct: purchased in-house thermal shift (DSF) kinase panel (SGC Frankfurt); Promega NanoBRET for AURKA/B/C
The data set is described as follows: Thermal shift assay. The format is binding. As to conditions: read-out: ΔTm BMX.

The target of data set [7] is T5, CLK1 (Homo sapiens, UniProt P49759).
T5 construct: purchased in-house thermal shift (DSF) kinase panel (SGC Frankfurt); Promega NanoBRET for AURKA/B/C
Put plainly: Thermal shift assay. The class given is binding. The note with it: read-out: ΔTm CLK1.

Data set [8] addresses T6, MAPK8 (Homo sapiens, UniProt P45983).
T6 construct: purchased in-house thermal shift (DSF) kinase panel (SGC Frankfurt); Promega NanoBRET for AURKA/B/C
The data set is described as follows: Thermal shift assay. The class given is binding. As to conditions: read-out: ΔTm MAPK8.

For data set [9], the target named is T7, GRK5 (Homo sapiens, UniProt P34947).
T7 construct: purchased in-house thermal shift (DSF) kinase panel (SGC Frankfurt); Promega NanoBRET for AURKA/B/C
Put plainly: Thermal shift assay. The class given is binding. The note with it: read-out: ΔTm GRK5.

Data set [10] concerns MCD4 cells. The data set is described as follows: MTS assay (cell viability). The class given is cell-based, mouse. As to conditions: 30 µM, 10 µM or 1 µM, 1 h; compared to untreated cells. In general terms: Formazan colour is commonly taken as a measure of viable cells.
Data set [11] addresses T8, CAMK1G (Homo sapiens, UniProt Q96NX5).
T8 construct: purchased in-house thermal shift (DSF) kinase panel (SGC Frankfurt); Promega NanoBRET for AURKA/B/C
The data set is described as follows: Thermal shift assay. The note with it: read-out: ΔTm CAMK1G. The class given is binding.

The target of data set [12] is T9, PAK4 (Homo sapiens, UniProt O96013).
T9 construct: purchased in-house thermal shift (DSF) kinase panel (SGC Frankfurt); Promega NanoBRET for AURKA/B/C
The data set is described as follows: Thermal shift assay. As to conditions: read-out: ΔTm PAK4. The format is binding.

For data set [13], the system named is AURKA. As to conditions: cited from earlier work.
In data set [14] the test system is HCT116. The arrangement: method as in PMID 19402633, PMID 30097580. As to conditions: colon cancer cell line HCT116; cited from earlier work.
For data set [15], the system named is ARID1A-deficient colorectal cancer cells. The arrangement: method as in PMID 30097580. The note with it: cited from earlier work.

T6 sequence (P45983 1-364): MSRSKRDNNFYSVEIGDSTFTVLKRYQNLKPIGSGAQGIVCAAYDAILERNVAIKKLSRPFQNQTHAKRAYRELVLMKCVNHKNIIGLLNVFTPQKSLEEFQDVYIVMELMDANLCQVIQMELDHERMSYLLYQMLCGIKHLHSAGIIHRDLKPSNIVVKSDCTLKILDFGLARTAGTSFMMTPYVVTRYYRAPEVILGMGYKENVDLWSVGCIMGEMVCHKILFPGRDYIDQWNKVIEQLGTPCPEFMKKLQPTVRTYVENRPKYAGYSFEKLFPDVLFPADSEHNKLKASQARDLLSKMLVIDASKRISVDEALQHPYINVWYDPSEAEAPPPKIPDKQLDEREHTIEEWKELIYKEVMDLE
T4 sequence (P51813 411-675): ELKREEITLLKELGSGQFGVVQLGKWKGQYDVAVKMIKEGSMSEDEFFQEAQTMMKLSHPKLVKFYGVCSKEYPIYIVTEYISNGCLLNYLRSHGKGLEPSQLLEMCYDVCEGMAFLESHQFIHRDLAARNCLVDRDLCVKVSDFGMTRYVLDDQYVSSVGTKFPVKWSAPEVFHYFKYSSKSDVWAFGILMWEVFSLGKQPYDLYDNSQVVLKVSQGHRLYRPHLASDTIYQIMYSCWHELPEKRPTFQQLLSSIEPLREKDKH
T7 sequence (P34947 186-514): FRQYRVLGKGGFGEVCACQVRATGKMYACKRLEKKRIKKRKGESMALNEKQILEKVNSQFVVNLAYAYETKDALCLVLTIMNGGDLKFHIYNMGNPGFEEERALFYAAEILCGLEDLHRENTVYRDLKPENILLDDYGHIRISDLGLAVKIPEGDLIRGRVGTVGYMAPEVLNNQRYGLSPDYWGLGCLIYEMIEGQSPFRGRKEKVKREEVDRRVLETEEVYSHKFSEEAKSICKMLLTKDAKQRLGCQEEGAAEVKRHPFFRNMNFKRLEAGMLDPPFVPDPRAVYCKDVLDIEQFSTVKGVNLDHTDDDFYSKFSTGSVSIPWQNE
T8 sequence (Q96NX5 23-277): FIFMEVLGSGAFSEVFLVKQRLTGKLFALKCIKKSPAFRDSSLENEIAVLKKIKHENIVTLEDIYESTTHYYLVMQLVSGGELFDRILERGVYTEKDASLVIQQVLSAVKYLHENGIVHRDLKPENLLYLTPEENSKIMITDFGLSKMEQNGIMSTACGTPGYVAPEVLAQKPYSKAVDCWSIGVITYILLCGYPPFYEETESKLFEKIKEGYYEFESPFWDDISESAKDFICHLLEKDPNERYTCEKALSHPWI
T5 sequence (P49759 148-484): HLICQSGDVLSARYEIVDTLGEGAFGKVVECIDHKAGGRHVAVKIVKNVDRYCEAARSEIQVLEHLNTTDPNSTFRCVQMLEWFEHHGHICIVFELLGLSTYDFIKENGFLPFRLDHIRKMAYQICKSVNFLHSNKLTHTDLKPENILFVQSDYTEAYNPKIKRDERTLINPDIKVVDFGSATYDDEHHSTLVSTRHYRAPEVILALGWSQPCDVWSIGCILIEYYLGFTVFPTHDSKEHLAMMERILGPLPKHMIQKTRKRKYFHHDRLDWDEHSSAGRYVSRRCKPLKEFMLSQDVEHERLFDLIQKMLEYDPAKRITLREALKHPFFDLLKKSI
T1 sequence (Q9Y2H1 90-453): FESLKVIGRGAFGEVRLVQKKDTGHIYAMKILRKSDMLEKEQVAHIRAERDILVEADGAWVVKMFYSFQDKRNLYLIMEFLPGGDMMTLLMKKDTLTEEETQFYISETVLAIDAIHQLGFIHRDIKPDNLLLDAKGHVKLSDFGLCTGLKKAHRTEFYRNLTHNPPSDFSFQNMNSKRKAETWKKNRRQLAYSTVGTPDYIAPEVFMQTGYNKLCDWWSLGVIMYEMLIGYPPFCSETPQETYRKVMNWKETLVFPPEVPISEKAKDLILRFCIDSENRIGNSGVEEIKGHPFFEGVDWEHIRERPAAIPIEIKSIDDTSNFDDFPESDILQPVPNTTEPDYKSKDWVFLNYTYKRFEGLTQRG
T9 sequence (O96013 291-591): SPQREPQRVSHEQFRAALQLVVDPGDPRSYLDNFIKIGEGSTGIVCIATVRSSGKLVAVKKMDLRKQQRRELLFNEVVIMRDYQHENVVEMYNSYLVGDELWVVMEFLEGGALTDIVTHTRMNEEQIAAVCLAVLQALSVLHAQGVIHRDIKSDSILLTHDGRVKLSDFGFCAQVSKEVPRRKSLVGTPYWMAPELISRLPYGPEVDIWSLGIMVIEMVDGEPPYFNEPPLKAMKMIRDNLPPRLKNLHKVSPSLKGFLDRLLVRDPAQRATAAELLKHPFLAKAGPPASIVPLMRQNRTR

For `CCN1CCN(C(=O)Cc2ccc(Nc3ncc(F)c(Nc4ccc(C(=O)Nc5ccccc5Cl)cc4)n3)cc2)CC1` [Aurora-A inhibitor I, reference compound], the CFL1 phosphorylation entry in data set [1] was “Relatively low levels”. Also, the “increase of binding to the AURKA-TPX2 complex” value in [2] is 2.4 fold. Besides, the ΔTm at 10 µM in [3] is 2.1 °C; in data set [4] it was 5 °C; in data set [5], 0.2 °C; in data set [6], 2.1 °C; in data set [7], 1.5 °C; in data set [8], 3.7 °C. Moreover, the ΔTm at 10 µM in [9] stood at 0.2 °C; in [11] it was 1.1 °C; in [12], 0.8 °C. For the same compound, the “viability of MCD4 cells” value in [10] is recorded as “did not elicit any significant effects”. The IC50 in data set [13] (cell-free assay) was 3.4 nM. The “selectivity for AURKA over AURKB” value in data set [13] is 1000 fold. Besides, in data set [14], the antiproliferative effects entry is “Antiproliferative effects”. Moreover, the “cell cycle arrest, multinucleation and apoptosis” value in data set [15] is “G2/M cell cycle arrest, multinucleation, and apoptosis”.
Turning to `CCN1CCN(C(=O)Cc2ccc(Nc3ncc(F)c(Nc4ccc(C(=O)O)cc4)n3)cc2)CC1` [ERJ2-12], the ΔTm at 10 µM came out at 0.2 °C in [3] (compound 10 µM, n = 3); 2.7 °C in [4] (compound 10 µM, n = 3); 0.2 °C in data set [5] (compound 10 µM, n = 3); 0.9 °C in data set [6] (compound 10 µM, n = 3); 0.5 °C in data set [7] (compound 10 µM, n = 3); 4.2 °C in data set [8] (compound 10 µM, n = 3). Besides, the thermal shift (ΔTm) at 10 µM in [9] (compound 10 µM, n = 3) was 0.2 °C; in data set [11] (compound 10 µM, n = 3), 0.2 °C; in [12] (compound 10 µM, n = 3), 0.1 °C. In addition, the “viability of MCD4 cells” value in [10] is “does not affect”.
For `CCN1CCN(C(=O)Cc2ccc(Nc3ncc(F)c(Nc4ccc(C(=O)Nc5ccccc5)cc4)n3)cc2)CC1` [ERJ2-11], the ΔTm at 10 µM is 2.6 °C in [3] (compound 10 µM, n = 3); 4.9 °C in data set [4] (compound 10 µM, n = 3); 0.2 °C in data set [5] (compound 10 µM, n = 3); 2.7 °C in data set [6] (compound 10 µM, n = 3); 1.5 °C in data set [7] (compound 10 µM, n = 3); 3.8 °C in [8] (compound 10 µM, n = 3). Besides, the ΔTm at 10 µM in data set [9] (compound 10 µM, n = 3) worked out at 0.2 °C; in data set [11] (compound 10 µM, n = 3) it was 1.2 °C; in [12] (compound 10 µM, n = 3), 1.1 °C. Further, the “viability of MCD4 cells” value in data set [10] was “reduced by 10 or 30 µM”.
In the case of `O=C(Cc1ccc(Nc2ncc(F)c(Nc3ccc(C(=O)Nc4ccccc4Cl)cc3)n2)cc1)NCCN1CCOCC1` [ERJ2-04], the ΔTm at 10 µM in data set [3] (compound 10 µM, n = 3) was determined as 1.5 °C; in data set [4] (compound 10 µM, n = 3), 4.5 °C; in [5] (compound 10 µM, n = 3) it was 0 °C; in data set [6] (compound 10 µM, n = 3), 1.5 °C; in [7] (compound 10 µM, n = 3), 0.4 °C; in [8] (compound 10 µM, n = 3) it was 3.2 °C. The ΔTm at 10 µM is 0.2 °C in data set [9] (compound 10 µM, n = 3); 0.4 °C in data set [11] (compound 10 µM, n = 3); 0.3 °C in data set [12] (compound 10 µM, n = 3). Further, the “viability of MCD4 cells” value in [10] was “reduced by 10 or 30 µM”.
Consider `NC(=O)Cc1ccc(Nc2ncc(F)c(Nc3ccc(C(=O)Nc4ccccc4Cl)cc3)n2)cc1` [ERJ2-06], for which the ΔTm at 10 µM was found to be 2.5 °C in [3] (compound 10 µM, n = 3); 5.1 °C in data set [4] (compound 10 µM, n = 3); 0 °C in data set [5] (compound 10 µM, n = 3); 2.1 °C in [6] (compound 10 µM, n = 3); 1.7 °C in data set [7] (compound 10 µM, n = 3); 3.7 °C in data set [8] (compound 10 µM, n = 3). The ΔTm at 10 µM in data set [9] (compound 10 µM, n = 3) was 0 °C; in data set [11] (compound 10 µM, n = 3), 1.2 °C; in [12] (compound 10 µM, n = 3), 0.3 °C. Moreover, the “viability of MCD4 cells” value in data set [10] is “did not elicit any significant effects”.

What is called ΔTm is the shift of the melting midpoint relative to a reference. By IC50 is commonly meant the concentration that inhibits the measured activity by half.
